The source of these data is article PMC11420944, “Targeted Degradation of Protein Kinase A via a Stapled Peptide PROTAC” (ACS Chemical Biology, 2024).

The structures appear in SMILES notation.

In assay [1] the test system is phospho serine/threonine PKA substrate. The experiment in a line: PKA substrate phosphorylation in forskolin-stimulated cells, Western blot. It is filed as cell-based. To be noted: MDA-MB-231 cells, 50 µM H89 added 30 min before 50 µM forskolin (30 min); n = 3. As for the experimental part:
(§1) Next, we sought to assess whether StIP-TAC could also downregulate PKAc signaling in cells. For this experiment, cells were treated with forskolin to stimulate PKAc activity. Cells were either treated with DMSO, the small molecule PKAc inhibitor H89, StIP-TAC alone, or StIP-TAC with SAINT protein (Figure 4; Figure S7). […] (Figure 4C,D). A known PKA substrate, vasodilator-stimulated phosphoprotein (VASP),[42] was also probed for PKA-mediated phosphorylation (Figure S8).
Cell-based PROTAC activity assays. MDA-MB-231 cells were grown on 6-well tissue culture plates (BD Biosciences). Cells were serum-starved for 24 hours in serum-free RPMI with penicillin/streptomycin, glucose, and L-glutamine. StIP-TAC treatment was prepared with SAINT-Protein reagent according to manufacturer protocol (Synvolux) and added to cells at a final concentration of 10 µM for 5 hours. For phosphorylation studies, cells were additionally stimulated with 50 µM forskolin for 30 minutes before harvesting. For H89-treated cells, 50 μM H89 was added 30 minutes before stimulation […]
with forskolin. […]
Cells were harvested in Laemmli sample buffer, boiled for 10 minutes and protein levels were analyzed via western blotting. For control experiments, cells were incubated for 5 hours with an equivalent volume of DMSO or SAINT-Protein to the above studies, with or without forskolin stimulation.
To assess PKA degradation, anti-PKAc (1:1000, BD Biosciences) and anti-GAPDH (1:1000, Proteintech) primary antibodies were used. To assess PKA substrate phosphorylation, anti-phospho serine/threonine PKA substrate (1:1000, Cell Signaling […]
Incubation with primary antibodies was followed by incubation with anti-mouse […]
Biosciences). Western blot fluorescence detection was performed using a LI-COR Odyssey Fc imaging system. Data analysis was performed using GraphPad Prism […]
Figure S7: Western blots for PKA substrate phosphorylation. Experiments were performed in triplicate (n=3) in low passage number MDA-MB-231 cells (ATCC HTB-26). Following t = 24 hour starvation in serum-free RPMI media, cells were treated for t = 5 hours with DMSO, SAINT-Protein Lipid reagent alone, 10 µM StIP-TAC, or 10 µM StIP-TAC incubated with SAINT-Protein Lipid reagent per manufacturer instructions. For forskolin-stimulated treatments, cells were incubated for 30 minutes with 50 µM forskolin […]
prior to harvesting in Laemmli sample buffer. For H89-inhibited treatments, cells were incubated for 30 minutes prior to forskolin stimulation with 50 µM H89. Lysates were run via SDS-PAGE and Western blotting performed anti-phospho serine/threonine PKA substrate (1:1000, Cell Signaling Technology) and anti-tubulin (1:1000, Cell Signaling Technology) primary antibodies.

The subject of the next assay is phospho VASP. Put plainly: VASP phosphorylation in forskolin-stimulated cells, Western blot. It is filed as cell-based. To be noted: MDA-MB-231 cells, 50 µM H89 added 30 min before 50 µM forskolin (30 min); n = 3. As for the experimental part:
as §1
Cell-based PROTAC activity assays. MDA-MB-231 cells were grown on 6-well tissue culture plates (BD Biosciences). Cells were serum-starved for 24 hours in serum-free RPMI with penicillin/streptomycin, glucose, and L-glutamine. StIP-TAC treatment was prepared with SAINT-Protein reagent according to manufacturer protocol (Synvolux) and added to cells at a final concentration of 10 µM for 5 hours. For phosphorylation studies, cells were additionally stimulated with 50 µM forskolin for 30 minutes before harvesting. For H89-treated cells, 50 μM H89 was added 30 minutes before stimulation with forskolin. For degradation studies, cells were co-treated with 10 μM MG-132 (Selleck Chemicals) alongside StIP-TAC and DMSO treatments for the duration of the 5-hour experiment. […] Cells were harvested in Laemmli sample buffer, boiled for 10 minutes and protein levels were analyzed via western blotting. […]
Biosciences). Western blot fluorescence detection was performed using a LI-COR Odyssey Fc imaging system. […]
Table S1. Peptide and PROTAC sequences, expected and observed masses determined via HPLC-MS. […]
Figure S8: StIP-TAC inhibits phosphorylation of the PKA substrate VASP. […] (B) Densitometric quantification of Western blots […]
reduction in phosphorylated VASP in cells treated with H89 and StIP-TAC with SAINT Protein reagent. Quantification was performed via Li-COR Image Studio. **p=0.010; ***p<0.001; ns, not significant as assessed by one-way ANOVA and Bonferroni’s multiple comparisons test. […]

Assay [2] has as its target recombinant human DNAJB1-PKAc (Homo sapiens, UniProt P17612+P25685). Put plainly: Fluorescence polarization direct binding of fluorescein-labeled peptides. Particulars: FP, N-terminally FAM-labeled peptide 0.5 nM, DNAJ-PKA-C 3 µM to 30 pM, 20 mM MOPS pH 7, 150 mM NaCl, 0.005% CHAPS, 1 mM ATP, 10 mM MgCl2, room temperature, mean and SD of three independent measurements. As for the experimental part:
To determine the binding affinity of the truncated library toward the catalytic subunit of PKA, fluorescence polarization (FP) experiments were performed using N-terminally fluorescein-labeled PKI-derived peptides incubated with a range of concentrations of recombinant human DNAJB1-PKAc (Figure 2). The DNAJB1-PKAc chimera is a clinically relevant protein identified in fibrolamellar hepatocellular carcinoma (FL-HCC) patients that combines the chaperonin-binding domain of heat-shock protein 40 (HSP40/DNAJ) with the catalytic (c) subunit of PKA.[34] The active site of the DNAJB1-PKAc protein is identical to native PKAc and retains inhibition by PKI with a nearly identical binding conformation.[35] […] To generate the StIP-TAC, several PEG linker lengths were conjugated with the thalidomide-derived Cereblon Ligand 1 and preliminarily tested (PEG3 to PEG9; Figure S2). All PEG lengths appeared to yield compound activity, and thus the PEG8 linker was chosen to provide greater flexibility to the overall compound. […]
Fluorescence Polarization (FP) Assay. Binding studies for the truncated peptide library to DNAJ-PKA-C were performed according to protocols described previously 21.
FAM-labeled peptides were plated to a final concentration of 0.5 nM after the addition of protein in 384-well microtiter plates. A tenfold dilution series of DNAJ-PKA-C were mixed in peptide wells to have 6 final concentrations ranging from 3 µM to 30 pM.
Assays were performed using FP buffer (20 mM MOPS pH 7, 150 mM NaCl, 0.005% CHAPS, 1 mM ATP, 10 mM MgCl2) at room temperature. All data were obtained using a BioTek Synergy 2 microplate reader using the following settings: excitation/emission/dichroic filters: 485-20 nm/528-20 nm/510 nm, 50 flashes per well, settling time 0.1 s. Non-linear regression (sigmoidal dose-response) was performed using GraphPad Prism 6.01 on FP signals plotted against log-scale protein concentrations to determine equilibrium dissociation constants (KD). Data analysis was performed using GraphPad Prism (Dotmatics). […]

For the compound `O=S(=O)(NCCNC/C=C/c1ccc(Br)cc1)c1cccc2cnccc12` [H89, reference compound], the “total PKA substrate phosphorylation” value in assay [1] is “statistically significant reduction”. The “phosphorylated VASP” value with phospho VASP was “statistically significant reduction”.

In the case of `CC[C@H](C)[C@H](NC(=O)[C@H](C)NC(=O)[C@H](CC(N)=O)NC(=O)[C@H](CCCNC(=N)N)NC(=O)[C@H](CCCNC(=N)N)NC(=O)CNC(=O)[C@@H](NC(=O)[C@H](CCCNC(=N)N)NC(=O)CNC(=O)[C@H](CO)NC(=O)[C@H](C)NC(=O)[C@@H](NC(=O)[C@H](Cc1ccccc1)NC(=O)[C@H](CC(=O)O)NC(=O)[C@]1(C)CCCC=CCCC[C@](C)(NC(=O)COCCOCCOCCNC(=O)c2ccc3c(c2)C(=O)OC32c3ccc(O)cc3Oc3cc(O)ccc32)C(=O)N[C@@H]([C@@H](C)O)C(=O)N[C@@H]([C@@H](C)O)C(=O)N[C@@H](Cc2ccc(O)cc2)C(=O)N1)[C@@H](C)CC)[C@@H](C)O)C(N)=O` [StIP-3], the Kd in assay [2] is 3 to 4 nM; in assay [2] (SD) it was 3.5 ± 0.1 nM.

`CC[C@H](C)[C@H](NC(=O)[C@H](C)NC(=O)[C@H](CC(N)=O)NC(=O)[C@H](CCCNC(=N)N)NC(=O)[C@H](CCCNC(=N)N)NC(=O)CNC(=O)[C@@H](NC(=O)[C@H](CCCNC(=N)N)NC(=O)CNC(=O)[C@H](CO)NC(=O)[C@H](C)NC(=O)[C@@H](NC(=O)[C@H](Cc1ccccc1)NC(=O)[C@H](CC(=O)O)NC(=O)[C@]1(C)CCCC=CCCC[C@](C)(NC(=O)[C@@H](NC(=O)[C@H](CC(=O)O)NC(=O)[C@@H](NC(=O)COCCOCCOCCNC(=O)c2ccc3c(c2)C(=O)OC32c3ccc(O)cc3Oc3cc(O)ccc32)[C@@H](C)O)C(C)C)C(=O)N[C@@H]([C@@H](C)O)C(=O)N[C@@H]([C@@H](C)O)C(=O)N[C@@H](Cc2ccc(O)cc2)C(=O)N1)[C@@H](C)CC)[C@@H](C)O)C(N)=O` [StIP-4]: the Kd in assay [2] is 3 to 4 nM; in assay [2] (SD), 3.2 ± 0.1 nM.
